Reference: patent US12077503B2, “Substituted cyclic amides and their use as herbicides” (FMC CORPORATION, priority 2015, dated 2024)

How the values were obtained:
Assay type in all cases: in vivo
[1] = test system: barnyardgrass (Echinochloa crus-galli); experiment: Test A preemergence
Method in brief: (§1)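 In a loam soil and sand blend, planted seeds got a preemergence directed soil spray, and young plants at the one- to two-leaf stage, 2–10 cm high, got a postemergence application; ~10 d greenhouse hold; injury rated visually, 0 = none, 100 = complete control.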

[2] = test system: ryegrass, Italian (Italian ryegrass, Lolium multiflorum); experiment: Test A preemergence
Method in brief: as §1

[3] = test system: giant foxtail (Setaria faberii); experiment: Test A preemergence
Method in brief: as §1

Kochia (Kochia scoparia) [4] = experiment: Test A preemergence
Method in brief: as §1

[5] = test system: ragweed (common ragweed, Ambrosia elatior); experiment: Test A preemergence
Method in brief: as §1

[6] = test system: pigweed (Amaranthus retroflexus); experiment: Test A preemergence
[7] = test system: barnyardgrass (Echinochloa crus-galli); experiment: Test B flooded paddy test; settings: Flood, 250 g ai/ha; 0 to 100 scale where 0 is no effect and 100 is complete control; 13 to 15 d
Method in brief: (§2)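 2-leaf plants; pots flooded 3 cm over soil; cpd added to paddy water; depth held; greenhouse 13–15 d; visual rating vs controls, 0 = no effect, 100 = complete control.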

[8] = test system: ducksalad (Heteranthera limosa); experiment: Test B flooded paddy test; settings: Flood, 250 g ai/ha; 0 to 100 scale where 0 is no effect and 100 is complete control; 13 to 15 d
Method in brief: as §2

[9] = test system: sedge, umbrella (small-flower umbrella sedge, Cyperus difformis); experiment: Test B flooded paddy test; settings: Flood, 250 g ai/ha; 0 to 100 scale where 0 is no effect and 100 is complete control; 13 to 15 d
Method in brief: as §2

rice (Oryra sativa) = experiment: Test B flooded paddy test; settings: Flood, 250 g ai/ha; 0 to 100 scale where 0 is no effect and 100 is complete control; 13 to 15 d
Method in brief: as §2

[10] = test system: barnyardgrass (Echinochloa crus-galli); experiment: Test A postemergence; settings: postemergence
Method in brief: as §1

[11] = test system: ryegrass, Italian (Italian ryegrass, Lolium multiflorum); experiment: Test A postemergence; settings: postemergence
Method in brief: as §1

corn (Zea mays) = experiment: Test A postemergence; settings: postemergence
Method in brief: as §1

[12] = test system: giant foxtail (Setaria faberii); experiment: Test A postemergence; settings: postemergence
Method in brief: as §1

Kochia (Kochia scoparia) [13] = experiment: Test A postemergence; settings: postemergence
Method in brief: as §1

[14] = test system: Galium (catchweed bedstraw, Galium aparine); experiment: Test A postemergence; settings: postemergence
Method in brief: as §1

[15] = test system: wheat (Triticum aestivum); experiment: Test A postemergence; settings: postemergence
Method in brief: as §1

[16] = test system: ragweed (common ragweed, Ambrosia elatior); experiment: Test A postemergence; settings: postemergence
Method in brief: as §1

[17] = test system: pigweed (Amaranthus retroflexus); experiment: Test A postemergence; settings: postemergence
Method in brief: as §1

[18] = test system: blackgrass (Alopecurus myosuroides); experiment: Test A postemergence; settings: postemergence
Method in brief: as §1

[19] = 125 g ai/ha, preemergence, 0 to 100 scale (0 no effect, 100 complete control)
[20] = Preemergence, 500 g ai/ha, visual injury approx. 10 d
[21] = 125 g ai/ha, visual injury rating on 0 to 100 scale (0 no effect, 100 complete control), approx. 10 d
[22] = 500 g ai/ha, 0 to 100 scale, 0 no effect, 100 complete control

**Q.** What does the source list for `O=C1NCC(c2ccc(Br)cc2)C1C(=O)Nc1cccc(F)c1F` (stereo not drawn) [Compound 446]?
**A.** Plant response rating, Barnyardgrass [1, 19]: 90; Barnyardgrass plant response rating (0 to 100 scale, 0 is no effect, 100 is complete control) [1, 20]: 90; Plant response rating, Ryegrass, Italian [2, 19]: 20; Ryegrass, Italian plant response rating (0 to 100 scale, 0 is no effect, 100 is complete control) [2, 20]: 60; Plant response rating, Foxtail, Giant [3, 19]: 90; Foxtail, Giant plant response rating (0 to 100 scale, 0 is no effect, 100 is complete control) [3, 20]: 90; Plant response rating, Kochia (Kochia (Kochia scoparia) [4]; [19]): 50; Kochia plant response rating (0 to 100 scale, 0 is no effect, 100 is complete control) (Kochia (Kochia scoparia) [4]; [20]): 50; Plant response rating, Ragweed [5, 19]: 50; Ragweed plant response rating (0 to 100 scale, 0 is no effect, 100 is complete control) [5, 20]: 50; Plant response rating, Pigweed [6, 19]: 40; Pigweed plant response rating (0 to 100 scale, 0 is no effect, 100 is complete control) [6, 20]: 60; Plant response rating, Barnyardgrass [7]: 75; Plant response rating, Ducksalad [8]: 100; Plant response rating, Sedge, Umbrella [9]: 0; Plant response rating, Rice (rice (Oryra sativa)): 0; Barnyardgrass plant response rating [10, 21]: 80; Plant response rating, Barnyardgrass [10, 22]: 90; Ryegrass, Italian plant response rating [11, 21]: 20; Plant response rating, Ryegrass, Italian [11, 22]: 30; Corn plant response rating (corn (Zea mays); [21]): 20; Plant response rating, Corn (corn (Zea mays); [22]): 30; Foxtail, Giant plant response rating [12, 21]: 90; Plant response rating, Foxtail, Giant [12, 22]: 90; Kochia plant response rating (Kochia (Kochia scoparia) [13]; [21]): 60; Plant response rating, Kochia (Kochia (Kochia scoparia) [13]; [22]): 60; Galium plant response rating [14, 21]: 50; Plant response rating, Galium [14, 22]: 50; Wheat plant response rating [15, 21]: 0; Plant response rating, Wheat [15, 22]: 50; Ragweed plant response rating [16, 21]: 0; Plant response rating, Ragweed [16, 22]: 20; Pigweed plant response rating [17, 21]: 50; Plant response rating, Pigweed [17, 22]: 60; Blackgrass plant response rating [18, 21]: 50; Plant response rating, Blackgrass [18, 22]: 50
